The values below are quoted from earlier work in US5932245A, “Gelatin or collagen hydrolysate containing drug formulation that provides for immediate release of nanoparticle drug compounds” (priority 1991, dated 1999).

Converted amounts (≈) assume the structure as drawn. Read-outs that look alike come from different tables or passages of the source.

For data set [1] the following is noted: in vivo.
The conditions of data set [2]: in contrast to indometacin.
For data set [3] the following is noted: aqueous medium.

For the compound `COc1ccc2c(c1)c(CC(=O)OCC(=O)O)c(C)n2C(=O)c1ccc(Cl)cc1` [acemetacin, carboxymethyl(1-(4-chlorobenzoyl)-5-methoxy-2-methyl-3-indolyl)acetate], the metabolism result in data set [1] is given as “for the most part metabolized to indometacin”. The ulcerogenic properties result in data set [2] was “weakly pronounced ulcerogenic properties”.

Turning to `COc1ccc(Cl)cc1C(=O)NCCc1ccc(S(=O)(=O)NC(=O)NC2CCCCC2)cc1` [glibenclamide, 1-{4-[2-(5-chloro-2-methoxybenzamido)ethyl]phenylsulfonyl}-3-cyclohexylurea], the solubility – broadly, how much of the substance goes into solution per volume – in data set [3] (pH 1.3, room temperature) is 1 µg/mL (≈ 2.02 µM); in data set [3] (pH 6.0, room temperature) it was 3 µg/mL (≈ 6.07 µM); in data set [3] (pH 7.8, room temperature) it was “about 30 mg/l”.

As to `COc1ccc2c(c1)c(CC(=O)O)c(C)n2C(=O)c1ccc(Cl)cc1` [indometacin, (1-(4-chlorobenzoyl)-5-methoxy-2-methyl-3-indolyl)acetic acid], the “water solubility (in words)” value is on record as “virtually water-insoluble”.
